Like-named read-outs stand apart in the source and are kept apart here.
Columns and labels:
PARP-1 = target: T1, PARP-1 (Homo sapiens, UniProt P09874); experiment: NAD+ quantitation (fluorescence) assay, determination of IC50 values for PARP inhibitors; type: biochemical
T1 construct: purchased Trevigen
Protocol: This assay was also applied to determine the IC50 values of the known PARP inhibitors. For these determinations, the inhibitors, at a variety of concentrations, were added to a 96-well plate containing NAD+ and nicked DNA. PARP-1 was then added, and the reaction was allowed to proceed for 15 min. At this point acetophenone/KOH was added, which serves to both quench the PARP-1 enzymatic activity and to begin the conversion of any remaining NAD+ to the fluorophore. After 10 min at 4° C. in the presence of acetophenone/KOH, a solution of formic acid was added and the mixture was incubated in a 110° C. oven for 5 minutes.
In addition, only very low levels of NAD+ were used in this assay (100 nM). […] However, NAD+ concentrations up to 100 μM can also be used, if one desires a direct correlation with other assay methods that typically use micromolar amounts of NAD+ substrate.
The reaction was initiated by adding 10 μL of PARP at a concentration of 10 μg/mL (in PARP assay buffer), bringing the final concentration to 2 μg/mL PARP, 10 μg/mL DNA, 100 nM NAD+ with varying concentrations of inhibitors in a total volume of 50 μL. The plate was incubated for 15 min at room temperature and the amount of NAD+ was then determined by the fluorescence method as described above for the calibration curve. The average value of control wells containing only NAD+ was set as 0% PARP activity, while the average value of control wells containing NAD+ and PARP (but no inhibitor) was set as 100% PARP activity. […] All data points in FIG. 8 were determined in quadruplicate.
Graphs were analyzed using Table Curve 2D. NAD+ standard curves were fitted with a least squares linear model and inhibitor curves were fitted with a logistic dose response curve.

PARP = PARP (Homo sapiens, UniProt P09874); conditions: literature values, references in brackets; cited from earlier work
[1] = 100 nM NAD+, 2 μg/mL PARP, 10 μg/mL DNA, 15 min at room temperature, 96-well plate, read-out: IC50 value

T1 sequence (P09874 whole entry): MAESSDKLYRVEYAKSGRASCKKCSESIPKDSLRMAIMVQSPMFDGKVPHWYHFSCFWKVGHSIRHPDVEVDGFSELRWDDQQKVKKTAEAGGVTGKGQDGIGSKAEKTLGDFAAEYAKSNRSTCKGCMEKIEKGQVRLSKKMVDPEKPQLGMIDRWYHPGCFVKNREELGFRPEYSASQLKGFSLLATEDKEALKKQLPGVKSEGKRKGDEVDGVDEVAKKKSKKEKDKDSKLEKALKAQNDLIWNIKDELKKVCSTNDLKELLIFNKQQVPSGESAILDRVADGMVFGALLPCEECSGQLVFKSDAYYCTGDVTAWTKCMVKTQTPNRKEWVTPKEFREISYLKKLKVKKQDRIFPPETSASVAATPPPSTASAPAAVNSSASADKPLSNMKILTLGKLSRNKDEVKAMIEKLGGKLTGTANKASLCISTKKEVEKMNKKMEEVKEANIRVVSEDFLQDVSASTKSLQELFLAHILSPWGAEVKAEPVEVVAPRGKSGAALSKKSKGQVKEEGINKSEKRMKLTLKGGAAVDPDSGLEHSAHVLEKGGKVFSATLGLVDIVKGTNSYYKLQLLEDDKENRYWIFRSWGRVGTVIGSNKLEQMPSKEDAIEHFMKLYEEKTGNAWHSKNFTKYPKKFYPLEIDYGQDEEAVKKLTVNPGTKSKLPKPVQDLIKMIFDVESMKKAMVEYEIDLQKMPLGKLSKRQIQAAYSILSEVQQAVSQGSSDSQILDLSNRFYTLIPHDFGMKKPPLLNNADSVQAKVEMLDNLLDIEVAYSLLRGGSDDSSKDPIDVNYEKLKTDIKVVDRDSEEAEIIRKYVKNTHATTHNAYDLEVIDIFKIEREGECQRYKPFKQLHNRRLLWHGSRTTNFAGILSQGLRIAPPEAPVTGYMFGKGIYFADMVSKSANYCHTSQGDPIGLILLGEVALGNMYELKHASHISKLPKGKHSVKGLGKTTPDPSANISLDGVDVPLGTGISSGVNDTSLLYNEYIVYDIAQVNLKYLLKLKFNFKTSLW
Chain of PARP (P09874 whole entry): as above

| SMILES | IC50 (PARP-1) [nM] | IC50 (PARP-1; [1]) [nM] | IC50 (PARP) [nM] |
| --- | --- | --- | --- |
| O=C1NCCc2c(OCCCCN3CCCCC3)cccc21 [DPQ, 3,4-dihydro-5-[4-(1-piperidinyl)butoxy]-1 (2B)-isoquinolinone] | 37 |  |  |
| O=c1[nH]c2ccccc2c2ccccc12 [6(5H)-phenanthridinons, 6(5H)-phenanthridinone] |  | 305 |  |
| NC(=O)c1ccccc1 [benzamide] |  | 1440 | 1300 |

Reference: patent US20070078100A1, “Methods of detecting poly(adp-ribose) polymerase and other nad+ utilizing enzymes” (THE BOARD OF TRUSTEES OF THE UNIVERSITY OF ILLINOI, priority 2003, published 2007)
